# Experimental data: patent US9458203B2, “Integrin-blocking polypeptides and uses thereof” (priority 2011, dated 2016)
# Like-named read-outs stand apart in the source and are kept apart here. Ends that are not written are not given here.
# Legend:
# Conditions in all cases: mouse, in vivo
# [1] = test system: human laryngeal cancer Hep-2; assay: heterotransplanted human laryngeal cancer Hep-2 in nude mice; format: in vivo
# Description: (§1) The total medication period was 14 days.
# [2] = test system: human ovarian cancer SK-OV-3; format: in vivo, nude mice
# Protocol: (§2) Taking a certain amount of vigorously growing tumor tissue, grinding the tumor tissue under sterile conditions and preparing cell suspension at the concentration of 1×10^7 cells/ml; then hypodermicaly inoculating 0.1 ml of the cell suspension into the right axillary region of nude mice. Keeping measuring the diameter of the transplanted tumor with a vernier caliper, and randomly dividing the mice into groups when the volume of the tumor reached 100-200 mm^3. […] Measuring the tumor diameter once every other day and recording the body weight of mice simultaneously. Intravenously injecting polypeptides to mice from test groups while administering equal quantity of physiological saline to mice from the negative control group. The total medication period was 14 days. Avastin was adopted to set up a positive control group; it was administered through the tail vein once every three days while all other drugs were administered through the tail vein once a day. Leaving mice for a one-week rest after 14 days' medication, then (21 days after medication) killing the mice, surgically dissecting the tumors and measuring the weight of tumors. The tumor volume (TV) was calculated in accordance with the following formula: TV=½×a×b^2
# [3] = test system: human bladder cancer HT1376; assay: heterotransplanted human bladder cancer HT1376 in nude mice; format: in vivo
# Description: as §1
# [4] = test system: human rectal cancer Colo 320
# Protocol: (§3) Taking a certain amount of vigorously growing tumor tissue, grinding the tumor tissue under sterile conditions and preparing cell suspension at the concentration of 1×10^7 cells/ml; then hypodermicaly inoculating 0.1 ml of the cell suspension into the right axillary region of nude mice. Keeping measuring the diameter of the transplanted tumor with a vernier caliper, and randomly dividing the mice into groups when the volume of the tumor reached 100-200 mm^3. Observing the dynamic effect of integrin-blocking polypeptides on inhibiting the growth of the tumor by means of documenting the change of tumor diameters. Measuring the tumor diameter once every other day and recording the body weight of mice simultaneously. Intravenously injecting polypeptides to mice from test groups while administering equal quantity of physiological saline to mice from the negative control group. The total medication period was 14 days. Avastin was adopted to set up a positive control group; it was administered through the tail vein once every three days while all other drugs were administered through the tail vein once a day. Leaving mice for a one-week rest after 14 days' medication, then (21 days after medication) killing the mice, surgically dissecting the tumors and measuring the weight of tumors. The tumor volume (TV) was calculated in accordance with the following formula: TV=½×a×b^2
# (§4) Taxol used in the positive control group was administered once every 3 days through tail vein injection, while drugs of all other groups were administered on daily basis through tail vein injection.
# [5] = test system: human breast cancer MDA-MB-231
# Protocol: as §3
# wherein a, b refer to the length and width of the tumor respectively.
# The relative tumor volume (RTV) can be calculated in accordance with the results of measurement, using the formula: RTV=Vt/V0, wherein V0 refers to the initial tumor volume measured on the date starting medication (namely d0) while Vt the tumor volume obtained through every measurement. The anti-tumor activity was evaluated by relative proliferation rate T/C (%), which was calculated in accordance with the following formula:
# wherein TRTV refers to the RTV of experimental groups; CRTV refers to the RTV of the negative control group.
# human brain tumor SF763 = test system: human brain tumor SF763
# Protocol: as §3, §4
# human lung cancer H460 = test system: human lung cancer H460
# Protocol: as §3, §4
# [6] = test system: human prostate cancer DU-145; format: in vivo, nude mice
# Protocol: as §2
# [7] = test system: human cervical cancer HeLa; format: in vivo, nude mice
# Protocol: as §2
# [8] = test system: human gastric cancer MGC-803
# Description: Keeping measuring the diameter of the transplanted tumor with a vernier caliper, and randomly dividing the mice into groups when the volume of the tumor reached 100-200 mm^3. Observing the dynamic effect of integrin-blocking polypeptides on inhibiting the growth of the tumor by means of documenting the change of tumor diameters. Measuring the tumor diameter once every other day and recording the body weight of mice simultaneously. Intravenously injecting polypeptides to mice from test groups while administering equal quantity of physiological saline to mice from the negative control group. The total medication period was 14 days. Avastin was adopted to set up a positive control group; it was administered through the tail vein once every three days while all other drugs were administered through the tail vein once a day. Leaving mice for a one-week rest after 14 days' medication, then (21 days after medication) killing the mice, surgically dissecting the tumors and measuring the weight of tumors. The tumor volume (TV) was calculated in accordance with the following formula: TV=½×a×b^2
# [9] = test system: human esophageal cancer Ec109; format: in vivo, nude mice
# Description: as §1
# [10] = test system: human testicular cancer 5637; format: in vivo, nude mice
# Description: as §1
# sarcoma HT-1080 = format: in vivo, nude mice
# Description: as §1
# [11] = format: in vivo, nude mice
# Description: as §1
# [12] = test system: human thyroid cancer SW-579; format: in vivo, nude mice
# [13] = test system: human pancreatic cancer SW-1990; assay: heterotransplanted human pancreatic cancer SW-1990 in nude mice; format: in vivo
# Description: as §1
# human renal cancer A498 = format: in vivo, nude mice
# Protocol: as §2
# [14] = test system: human gallbladder cancer GBC-SD
# [15] = test system: human endometrial cancer HHUA
# [16] = test system: human liver cancer SMMC-7721
# Protocol: as §3, §4
# human colon cancer HT-29 = format: in vivo, nude mice
# melanoma B16F10 = assay: transplanted melanoma B16F10 in C57BL/6 black mice
# Protocol: Hypodermically injecting polypeptides and other drugs into the left axillary region of mice from the experimental groups respectively while administering only equal quantity of physiological saline to the mice from the negative control group. The total medication period was 14 days, during which cyclophosphamide was administered once every other day, taxol once every three days, low-dose polypeptide twice a day and all other drugs once a day.
sequence,measurement,setting,value
FQPVLHLVALNSPLSGGMRGIRGADFQCFQQARAVGLAGTFRAGGGGRGD [polypeptide III],"body weight of animals, in words",[1],no significant change in body weight
same,"toxic and side effects, in words",[1],no obvious toxic and side effects
same,final weight,[1]; 0.1875 mg/kg,22.94 ± 0.46 g
same,final weight,[1]; 0.375 mg/kg,22.96 ± 0.57 g
same,final weight,[1]; 0.75 mg/kg,23.18 ± 0.51 g
same,"body weight of animals, in words",[2],no significant change in body weight
same,"toxic and side effects, in words",[2],no obvious toxic and side effects
same,final weight,[2]; 0.1875 mg/kg,22.83 ± 0.50 g
same,final weight,[2]; 0.375 mg/kg,22.92 ± 0.70 g
same,final weight,[2]; 0.75 mg/kg,22.95 ± 0.64 g
same,"body weight of animals, in words",[3],no significant change in body weight
same,"toxic and side effects, in words",[3],no obvious toxic and side effects
same,"body weight of animals, in words",[4],no significant change in body weight
same,"toxic and side effects, in words",[4],no obvious toxic and side effects
same,final weight,[4]; 0.1875 mg/kg,22.81 ± 0.60 g
same,final weight,[4]; 0.375 mg/kg,22.93 ± 0.56 g
same,final weight,[4]; 0.75 mg/kg,23.14 ± 0.48 g
same,"body weight of animals, in words",[5],no significant change in body weight
same,"toxic and side effects, in words",[5],no obvious toxic and side effects
same,"body weight of animals, in words",human brain tumor SF763,no significant change in body weight
same,"toxic and side effects, in words",human brain tumor SF763,no obvious toxic and side effects
same,final weight,human brain tumor SF763; 0.1875 mg/kg,23.31 ± 0.57 g
same,final weight,human brain tumor SF763; 0.375 mg/kg,23.37 ± 0.56 g
same,final weight,human brain tumor SF763; 0.75 mg/kg,23.09 ± 0.53 g
same,"body weight of animals, in words",human lung cancer H460,no significant change in body weight
same,"toxic and side effects, in words",human lung cancer H460,no obvious toxic and side effects
same,"body weight of animals, in words",[6],no significant change in body weight
same,"toxic and side effects, in words",[6],no obvious toxic and side effects
same,"body weight of animals, in words",[7],no significant change in body weight
same,"toxic and side effects, in words",[7],no obvious toxic and side effects
same,"body weight of animals, in words",[8],no significant change in body weight
same,"toxic and side effects, in words",[8],no obvious toxic and side effects
same,"body weight of animals, in words",[9],no significant change in body weight
same,"toxic and side effects, in words",[9],no obvious toxic and side effects
same,"toxic and side effects, in words",[10],no obvious toxic and side effects
same,"body weight of animals, in words",sarcoma HT-1080,no significant change in body weight
same,"toxic and side effects, in words",sarcoma HT-1080,no obvious toxic and side effects
same,final weight,sarcoma HT-1080; 0.1875 mg/kg,22.92 ± 0.57 g
same,final weight,sarcoma HT-1080; 0.375 mg/kg,23.18 ± 0.57 g
same,final weight,sarcoma HT-1080; 0.75 mg/kg,23.07 ± 0.56 g
same,"body weight of animals, in words",[11],no significant change in body weight
same,"body weight of animals, in words",[12],no significant change in body weight
same,"toxic and side effects, in words",[12],no obvious toxic and side effects
same,"body weight of animals, in words",[13],no significant change in body weight
same,"toxic and side effects, in words",[13],no obvious toxic and side effects
same,"body weight of animals, in words",human renal cancer A498,no significant change in body weight
same,"toxic and side effects, in words",human renal cancer A498,no obvious toxic and side effects
same,"body weight of animals, in words",[14],no significant change in body weight
same,"toxic and side effects, in words",[14],no obvious toxic and side effects
same,"body weight of animals, in words",[15],no significant change in body weight
same,"toxic and side effects, in words",[15],no obvious toxic and side effects
same,"body weight of animals, in words",[16],no significant change in body weight
same,"toxic and side effects, in words",[16],no obvious toxic and side effects
same,"body weight of animals, in words",human colon cancer HT-29,no significant change in body weight
same,"toxic and side effects, in words",human colon cancer HT-29,no obvious toxic and side effects
same,"body weight of animals, in words",melanoma B16F10,no severe weight change
same,"toxic and side effects, in words",melanoma B16F10,no severe weight change or obvious toxic and side effects
